Among the data in US20070059364A1, “Active substance combination comprising a compound with npy receptor affinity and a compound with 5-ht6 receptor affinity” (Laboratorios Del Dr. Esteve S.A., priority 2003, published 2007) are IC50 and Ki values, retold here.

Where a name gives a salt, the structure may show the parent alone.

As a reminder, the IC50 is the concentration at which inhibition is half-maximal. The term Ki denotes a dissociation constant, usually derived from enzyme kinetics or from competition with a known ligand. Low readings indicate higher affinity, high ones lower affinity.

Assay [1] concerns the target T1, rat Y5 receptor (Rattus norvegicus, UniProt Q63634).
T1 construct: expressed in transfected cells; host or cells: C6 cells
T1 sequence (Q63634 1-445): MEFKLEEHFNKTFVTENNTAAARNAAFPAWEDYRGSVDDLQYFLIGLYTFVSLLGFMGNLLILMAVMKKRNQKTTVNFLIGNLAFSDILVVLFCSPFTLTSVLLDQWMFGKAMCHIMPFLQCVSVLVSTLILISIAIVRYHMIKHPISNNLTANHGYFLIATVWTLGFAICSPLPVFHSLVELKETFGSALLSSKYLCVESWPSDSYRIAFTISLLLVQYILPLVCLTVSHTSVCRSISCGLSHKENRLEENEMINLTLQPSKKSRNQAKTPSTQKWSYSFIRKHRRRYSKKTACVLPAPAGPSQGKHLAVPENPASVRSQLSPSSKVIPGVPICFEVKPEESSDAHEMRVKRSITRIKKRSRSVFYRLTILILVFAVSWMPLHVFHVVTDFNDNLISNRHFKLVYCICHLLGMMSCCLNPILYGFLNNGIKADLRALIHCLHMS
As to the kind of experiment: Neuropeptide Y5 receptor binding, Method (II), [125I]-PYY, C6 cells transfected with rat Y5 receptor. Conditions: Y5 rat recombinant receptor, cell C6. The procedure: Neuropeptide Y5 Receptor Binding Studies:
The experimental protocol follows the method described by Y. Hu, B. T. Bloomquist et al. in Y. Hu, B. T. Bloomquist et al., The Journal of Biological Chemistry, 1996, 271, 26315-26319 with modifications. Cells C6 were transfected with the rat Y5 receptor. The cells were grown under standard culture conditions in 150 cm^2 dishes and they were harvested using a rubber scraper and 10 ml PBS. The cells from five dishes were collected and centrifuged 2.500 g for 5 min. The pellet was washed by resuspending in 3 ml buffer (Tris-HCl 10 mM, pH 7.4), homogenized using a Potter S homogenizer, 10 strokes at 600 rpm and centrifuged in cold conditions at 48.000 g for 20 min (4° C.). The resulting pellet was resuspended in cold 8 ml membrane buffer (Tris-HCl 25 mM, NaCl 120 mM, KCl 5 mM, KH2PO4 1, 2 mM, CaCl2 2, 5 mM, MgSO4 1, 2 mM, BSA 0.15 mg/ml, Bacitracine 0.5 mg/ml, pH 7, 4) and rehomogenized using the Potter S, 10 strokes at 600 rpm. The protein concentration of the used membrane in the incubation was approximately 40 μg/ml. The radioligand is [^125I]-PYY in a concentration of 100 pM. The incubation volume is 200 μl. […] Non-specific binding is determined in the presence of 1 μM of NPY. […]

Assay [2] deals with T2, Neuropeptide Y5 receptor (Rattus norvegicus, UniProt Q63634).
T2 construct: from tissue; host or cells: rat brain cortex membranes (male Wistar rats)
T2 sequence (Q63634 1-445): T1 sequence (Q63634 1-445)
As to the kind of experiment: Neuropeptide Y5 receptor binding, Method (I), [125I]-PYY3-36 with BIBP 3226, rat cortex membranes. Conditions: [125I]-PYY(3-36), BIBP 3226 sat. The procedure:
Male Wistar rats are sacrificed by decapitation, their brains are rapidly removed and the cortex is dissected. Homogenization is performed in cold conditions in the buffer: 120 mM NaCl, 4.7 mM KCl, 2.2 mM CaCl2, 1.2 mM KH2PO4, 1.2 mM MgSO4, 25 mM NaHCO3, 5.5 mM glucose, pH 7.4, by means of a Ultra-Turrax homogenizer for 15 seconds at 13,500 rpm. The ratio between fresh tissue weight and buffer volume is of twenty times. The membrane is centrifuged for 10 min at 48,000 g. The supernatant is discarded and the pellet is washed, resuspended and recentrifuged three more times. […] Incubation volume: 500 μl. […] The filters are cold-washed three times with two milliliters of the same buffer used in homogenization. […] Non-specific binding is determined in the presence of 1 μM of pNPY (Neuropeptide Y of porcine origin). The assays are performed in triplicate.

Assay [3] has as its target T3, Neuropeptide Y2 receptor (Rattus norvegicus, UniProt Q9ERC0).
T3 construct: from tissue; host or cells: rat hippocampus membranes (male Wistar rats)
T3 sequence (Q9ERC0 1-381): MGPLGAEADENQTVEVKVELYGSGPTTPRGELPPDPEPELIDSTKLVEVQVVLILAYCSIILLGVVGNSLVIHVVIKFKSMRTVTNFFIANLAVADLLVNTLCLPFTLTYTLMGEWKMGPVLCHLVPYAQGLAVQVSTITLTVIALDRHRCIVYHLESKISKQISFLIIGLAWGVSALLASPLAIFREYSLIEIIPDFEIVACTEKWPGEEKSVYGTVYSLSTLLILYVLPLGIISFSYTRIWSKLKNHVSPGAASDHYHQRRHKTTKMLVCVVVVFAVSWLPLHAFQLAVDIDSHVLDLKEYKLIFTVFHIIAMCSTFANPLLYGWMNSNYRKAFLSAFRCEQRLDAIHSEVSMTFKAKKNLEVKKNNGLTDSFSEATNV
As to the kind of experiment: Binding to Neuropeptide Y2, Method (III), [125I]-PYY3-36, rat hypoccampus membranes. Conditions: [125I]-PYY(3-36). The procedure:
Binding to Neuropeptide Y2
Male Wistar rats are sacrificed by decapitation, their brains are rapidly removed and the hypoccampus is dissected. Homogenization is performed in cold conditions in the buffer: 120 mM NaCl, 4.7 mM KCl, 2.2 mM CaCl2, 1.2 mM KH2PO4, 1.2 mM MgSO4, 25 mM NaHCO3, 5.5 mM glucose, pH 7.4, by means of a Ultra-Turrax homogenizer for 15 seconds at 13,500 rpm. The ratio between fresh tissue weight and buffer volume is of ten times. The membrane is centrifuged for 10 min at 48,000 g. The supernatant is discarded and the pellet is washed, resuspended and recentrifuged two more times. The final membrane resuspension is performed in the buffer: 120 mM NaCl, 4.7 mM KCl, 2.2 mM CaCl2, 1.2 mM KH2PO4, 1.2 mM MgSO4, 25 mM NaHCO3, 5.5 mM glucose, 0.1% BSA, 0.05% bacitracin, pH 7.4, at a 90 ml/g ratio of fresh issue. […] Incubation volume: 500 μl. […] The filters are cold-washed three times with three milliliters of the same buffer used in homogenization. […] Non-specific binding is determined in the presence of 1 μM of pNPY (Neuropeptide Y of porcine origin). The assays are performed in triplicate.

Regarding `O=C(CN1CCC(N2C(=O)OCc3cc(F)ccc32)CC1)Nc1ccc2ncccc2c1` [Example 111a, 2-[4-(6-Fluoro-2-oxo-4H-benzo[d][1,3]oxazin-1-yl)-piperidin-1-yl]-N-quinolin-6-yl-acetamide], the IC50 in assay [1] was determined as 7.7 nM.
With `O=C(CN1CCC(N2C(=O)OCc3ccccc32)CC1)Nc1ccc2c(c1)CCCC2=O` [Example 6a, 2-[4-(2-oxo-4H-benzo[d][1,3]oxazin-1-ylipiperidin-1-yl]-N-(5-oxo-5,6,7,8-tetrahidro-naphthalene-2-yl)-acetamide hydrochloride], the Ki in assay [2] was 18.4 nM; in assay [3] it was over 1000 nM.
